Data reported in US20100310542A1, “Pharmaceutical Compositions for treating wouds and related methods” (HEALOR LTD., priority 2007, published 2010).

Key:
[1] = system: primary murine keratinocytes; test: in vitro scratch assay, wound closure with insulin in Formulation C and D; type: cell-based; settings: insulin 0.1 units/ml, 48 hours
Description: Murine keratinocytes were isolated and cultured as described above. After five days, confluent keratinocytes were subjected in vitro scratch assays to follow wound healing. Following wound formation Insulin (insulin 10^−6 M; 0.1 units/ml) was added to the cell cultures in the various formulations (Formulation C and D) described above. Wound closure was followed for 48 hours. This experiment was carried out in triplicate. Wound closure is presented as the percent of closure following 48 hours of treatment in FIG. 6B.
Cultures of 5 day old, confluent keratinocytes were subjected to in vitro scratch assays and wound healing was examined. Following wound formation, Insulin (10^−6 M; 0.1 units/ml) was added to cell cultures in the various formulations (Formulation C and D) as described above. Wound closure was followed for 48 hours. Experiments were carried out in triplicate. (A) Photographs of representative cell culture dishes are presented. (B) Wound closure is presented as percent of closure following 48 hours of treatment. (C) Proliferation assays were performed on cultured cells in the wound using the thymidine incorporation proliferation assay described above.

[2] = system: primary murine keratinocytes; test: cell proliferation by [3H]thymidine incorporation; type: cell-based; settings: insulin 0.1 units/ml
Description: Cell proliferation: Cell proliferation was measured by [^3H]thymidine incorporation in 6 well plates. Cells were pulsed with [^3H]thymidine (3 μCi/ml) for 1 h. After incubation, cells were washed five times with PBS and 5% TCA was added into each well for 1 h. The solution was removed and cells were solubilized in 1 M NaOH. The labeled thymidine incorporated into cells was counted in a ^3H-window of TRI-CARB™ liquid scintillation counter.
Next, proliferation of cultured cells in the wound was evaluated utilizing thymidine incorporation (FIG. 6C). Cell proliferation was measured by [^3H]thymidine incorporation in 6 well plates. Cells were placed in […] and pulsed with [^3H]thymidine (3 μCi/ml) for 1 h. After incubation, cells were washed five times with PBS and 5% TCA was added to each well for 1 h. This solution was then removed and cells were solubilized in 1 M NaOH. The labeled thymidine incorporated into the cells was counted in the ^3H-window of a liquid scintillation counter. As shown in FIGS. 6A-C the addition of KCl changed insulin induced wound closure and cell proliferation.
Cultures of 5 day old, confluent keratinocytes were subjected to in vitro scratch assays and wound healing was examined. Following wound formation, Insulin (10^−6 M; 0.1 units/ml) was added to cell cultures in the various formulations (Formulation C and D) as described above. […]

[3] = system: keratinocytes from the tails of adult mice; test: cell proliferation, Rapid Cell Proliferation Kit, pre-incubation in medium B; type: cell-based; settings: pre-incubation of cells in medium B for 24 hours vs treatment parallel to medium change
Description: Medium A and B are both EMEM eagle's minimal essential medium from Biological Industries (Israel) containing 8% CHELEX™ treated fetal bovine serum. CHELEX™ is a strong chelator which binds free Ca^2+ and Mg^2+ ions to prevent these ions from being bioavailable to the cultured cells. […] The influence of pre-incubation of keratinocytes in medium B on the effects of Insulin and Insulin+PKCα inhibitor on cell proliferation in vitro was evaluated. Cultures of 5 day old, confluent keratinocytes from the tails of adult mice (7-10 months up to 2 years) were allowed to proliferate in vitro. After 5 days in MEM (medium A), the growth medium was changed to medium B (described above). Parallel to the medium changing or 24 hours following it, cells were treated with Insulin or with Insulin+PKCα inhibitor. The proliferation rate of the cells was measured with the commercially available Rapid Cell Proliferation Kit (Cat. No. QIA127; Calbiochem). The Experiment was carried out in hexaplicate. Results are presented as percent of untreated cells (control). […] Cultures of 5 day old, confluent keratinocytes prepared from the tails of adult mice (7-10 months up to 2 years) were subjected to proliferation assays utilizing a commercially available Rapid Cell Proliferation Kit (Cat. No. QIA127; Calbiochem). After 5 days in MEM, the growth medium was changed to medium B as described above. […]

[4] = system: full thickness skin incisions; test: incision wound healing in mice, percent of healed wounds; type: in vivo, C57BL/6J mice; settings: agent alone, all formulations (A-C); daily, 7 days; vs groups treated with formulations alone
Description: In vivo incision wound generation and inducement of inflammation: Full thickness (20 mm long) skin incisions were performed on the upper back of anesthetized C57BL/6J mice (6 mice per group). […] the incision, wounds were treated daily with insulin (10^−6 M; 0.1 units/ml); pseudosubstrate PKCα peptide, 1 μM (PKCα inhibitor); or Insulin+PKCα inhibitor (Myr-pseudosubstrate PKCα peptide, 1 μM and insulin 0.1 units) applied directly on the wounds in the various formulations (Formulations A-C) as described above. After 7 days, wounds were excised and the percentage of healed wounds was evaluated by examining the morphology and histology of the wounds. Results are presented as percent of healed wounds relative to the total number of wounds per group. […] Full thickness (20 mm long) skin incisions were performed on the upper back of anesthetized C57BL/6J mice (6 mice per group). […] After 7 days, wounds were excised and the percentage of healed wounds was evaluated by examining the morphology and histology of the wounds. […]

[5] = Formulation D (Tris + KCl 0.4 mg/ml)

In the case of “Insulin: human recombinant insulin, identified as insulin, USP insulin or Ins USP”, the “wound closure in vitro” value ([1]; Formulation C (Tris)) is reported as “inhibited insulin induced wound closure”, the “wound closure in vitro” value [1, 5] is reported as “induced partial wound closure” and the “cell proliferation (thymidine incorporation)” value ([2]; Formulation C (Tris)) is reported as “inhibited insulin induced wound closure and cell proliferation”. The “cell proliferation (thymidine incorporation)” value [2, 5] was “induced partial wound closure and cell proliferation”, the “effect on cell proliferation (percent of untreated cells)” value [3] was “enhances the effects” and the “healing of wounds (percent of healed wounds)” value [4] was “did not promote wound healing efficacy”.
